Assay [1] relates to Phospho-ERK1/2(THR202/TYR204) in NCI-H358 cells express KRAS G12C. Briefly: Phospho-ERK1/2(THR202/TYR204) HTRF assay. It is filed as cell-based. The note with it: Homo sapiens; NCI-H358, 2 hours incubation; read-out: p-ERK inhibition in NCI-H358 IC50. As for the experimental part:
NCI-H358 cells express KRAS G12C were cultured in RPMI 1640 medium (Gibco) containing 10% fetal bovine serum (Gibco). Cells in culture medium were plated in 96-well plates at a concentration of 40,000 cells/well and allowed to attach overnight. The next day, culture medium was removed and added compounds diluted in assay medium (RPMI 1640, 0.1% EFBS). After 2 hours incubation in a 37° C./5% CO2 cell incubator, the assay medium was removed, then 50 μL of 1× supplemented lysis buffer (Cisbio) was added and the plates were incubated at 25° C. for 45 min with shaking. 10 μL of cell lysates from the 96-well plates were transferred to a 384-well plate (Greiner) containing 2.5 µL/well HTRF® pre-mixed antibodies (Cisbio 64AERPEH).
Incubate 4 hours at 25° C. and then read HTRF signals on Tecan Spark multimode microplate reader. The data were analyzed using a 4-parameter logistic model to calculate IC50 values.
In general terms: Time-resolved FRET reads energy transfer from a long-lived donor to a nearby acceptor.

The target of assay [2] is T1, KRAS G12C (Homo sapiens, UniProt P01116, G12C).
T1 construct: HIS-KRAS (G12C, aa 2-185, Sino biological); purchased Sino biological
T1 sequence (P01116 2-185 isoform P01116-2 G12C): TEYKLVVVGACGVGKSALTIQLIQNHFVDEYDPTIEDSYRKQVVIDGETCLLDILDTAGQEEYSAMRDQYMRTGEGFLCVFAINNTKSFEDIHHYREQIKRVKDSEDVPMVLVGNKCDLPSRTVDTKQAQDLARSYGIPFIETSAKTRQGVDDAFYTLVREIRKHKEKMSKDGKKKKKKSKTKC
Briefly: SOS1 catalyzed nucleotide exchange assay (TR-FRET). It is filed as biochemical. The note with it: GDP-loaded HIS-KRAS(G12C), 1 hour pre-incubation with compound. The method, then: 1. SOS1 Catalyzed Nucleotide Exchange Assay
HIS-KRAS (G12C, aa 2-185, Sino biological) was diluted to […] EDTA buffer (20 mM HEPES, pH 7.4, 50 mM NaCl, 10 mM EDA, 0.01% (v/v) Tween-20) and incubated for 30 min at 25° C. The EDTA pretreated HIS-KRAS(G12C) was diluted to 12 nM in assay buffer (25 mM HEPES, pH 7.4, 120 mM NaCl, 5 mM MgCl2, 1 mM DTI, 0.01% (v/v) Tween 20, 0.1% (w/v) BSA) containing 120 nM GDP(Sigma) and Mab Anti 6HIS-Tb cryptate Gold(Cisbio) and incubated for 1 hour at 25° C. to prepare GDP-loaded HIS-KRAS(G12C). The GDP-loaded HIS-KRAS(G12C) was pre-incubation with diluted compounds in a 384-well plate (Greiner) for 1 hour, then purified SOS 1ExD (Flag tag, aa 564-1049) and BODIPY™FL GTP (Invitrogen) were added to the assay wells (Final concentration: 3 nM HIS-KRAS(G12C), 2 μM SOS1 ExD, 80 nM BODIPY™FL GTP, 21 ng/mL MAb Anti 6HS-Tb cryptate Gold) and incubated for 4 hours at 25° C. TR-FRET signals were then read on Tecan Spark multimode microplate reader. The parameters were F486: Excitation 340 (35) nm, Emission 486 (10) nm, Lag time 100 μs, Integration time […]; F515: Excitation 340 (35) nm, Emission 515 (10) nm, Lag time […], Integration time 200 s. TR-FRET ratios for each individual wells were calculated by equation: TR-FRET ratio=(Signal F515/Signal F486)*10000. Then the data were analyzed using a 4-parameter logistic model to calculate IC50 values.

Assay [3] deals with NCI-H358 cells express KRAS G12C. Briefly: Cell growth inhibition assay (CCK-8). It is filed as cell-based. The note with it: Homo sapiens, 144 h; NCI-H358, 6 days incubation. The method, then: 3. Cell Growth inhibition assay
NCI-H358 cells express KRAS G12C were cultured in RPMI 1640 medium (Gibco) containing 10% fetal bovine serum (Gibco). Cells in culture medium were plated in 96-well plates at a concentration of 3000 cells/well ([…]) and allowed to attach overnight. The next day, compounds were diluted in culture medium and added to the plates. After 6 days incubation in a 37° C./5% CO2 cell incubator, the medium was removed, then 100 μL of 1×CCK-8 (MCE) in culture medium was added in each well. The plates were incubated 1.5-2 hours in a 37° C./5% CO2 cell incubator. OD450 signals were read on Tecan Spark multimode microplate reader and analyzed using a 4-parameter logistic model to calculate IC50 values.

One may read the IC50 as the concentration that inhibits the measured activity by half. For the molecule `C=CC(=O)N1CCN(c2nc(OC3CCCC(N(C)C)C3)nc3c2CCN(c2cccc4ccccc24)C3)CC1CC#N` (stereo not drawn) [Compound 10, 2-(1-acryloyl-4-(2-((3-(dimethylamino)cyclohexyl)oxy)-7-(naphthalen-1-yl)-5,6,7,8-tetrahydropyrido[3,4-d]pyrimidin-4-yl)piperazin-2-yl)acetonitrile], the 50% inhibitory concentration (IC50) in assay [1] came out at 720 nM; in assay [2], 1740 nM; in assay [3], 940 nM.
Taken in the same sequence, the figures for `C=CC(=O)N1CCN(c2nc(OCC3(CN(C)C)CC3)nc3c2CCN(c2c(C)ccc4[nH]ncc24)C3)CC1CC#N` (stereo not drawn) [Compound 3, 2-(1-acryloyl-4-(2-((1-((dimethylamino)methyl)cyclopropyl)methoxy)-7-(5-methyl-1H-indazol-4-yl)-5,6,7,8-tetrahydropyrido[3,4-d]pyrimidin-4-yl)piperazin-2-yl)acetonitrile] were 453 nM, 12.1 nM and 408 nM.
For `C=CC(=O)N1CCN(c2nc(OCC3CCCC(N(C)C)C3)nc3c2CCN(c2ccccc2C(F)(F)F)C3)CC1CC#N` (stereo not drawn) [Compound 6, 2-(1-acryloyl-4-(2-((3-(dimethylamino)cyclohexyl)methoxy)-7-(2-(trifluoromethyl)phenyl)-5,6,7,8-tetrahydropyrido[3,4-d]pyrimidin-4-yl)piperazin-2-yl)acetonitrile], the IC50 in assay [1] was found to be 592 nM; in assay [2], 178 nM; in assay [3] it was 580 nM.
As for `C=CC(=O)N1CCN(c2nc(OCC3(CN4CC(F)C4)CC3)nc3c2CCN(c2cccc4cccc(C)c24)C3)CC1CC#N` (stereo not drawn) [Compound 62, 2-(1-acryloyl-4-(2-((1-((3-fluoroazetidin-1-yl)methyl)cyclopropyl)methoxy)-7-(8-methylnaphthalen-1-yl)-5,6,7,8-tetrahydropyrido[3,4-d]pyrimidin-4-yl)piperazin-2-yl)acetonitrile], the half-maximal inhibitory concentration (IC50) in assay [1] was determined as 43 nM; in assay [2], 2.34 nM; in assay [3], 66.9 nM.
Turning to `C=CC(=O)N1CCN(c2nc(OCC3(CN4CCOCC4)CC3)nc3c2CCN(c2cccc(Cl)c2C(F)(F)F)C3)CC1CC#N` (stereo not drawn) [Compound 40, 2-(1-acryloyl-4-(7-(3-chloro-2-(trifluoromethyl)phenyl)-2-((1-(morpholinomethyl)cyclopropyl)methoxy)-5,6,7,8-tetrahydropyrido[3,4-d]pyrimidin-4-yl)piperazin-2-yl)acetonitrile], the half-maximal inhibitory concentration (IC50) in assay [2] worked out at 23.8 nM; in assay [3] it was 360 nM.
With `C=CC(=O)N1CCN(c2nc(OCC3(CN(C)C)CC3)nc3c2CCN(c2cccc(C)c2C)C3)CC1CC#N` (stereo not drawn) [Compound 48, 2-(1-acryloyl-4-(2-((1-((dimethylamino)methyl)cyclopropyl)methoxy)-7-(2,3-dimethylphenyl)-5,6,7,8-tetrahydropyrido[3,4-d]pyrimidin-4-yl)piperazin-2-yl)acetonitrile], the IC50 worked out at 66 nM in assay [1], 3.31 nM in assay [2] and 94.9 nM in assay [3].
Taken in the same sequence, the figures for `C=CC(=O)N1CCN(c2nc(OCC3CCCC3N(C)C)nc3c2CCN(c2ccccc2C(F)(F)F)C3)CC1CC#N` (stereo not drawn) [Compound 27, 2-(1-acryloyl-4-(2-((2-(dimethylamino)cyclopentyl)methoxy)-7-(2-(trifluoromethyl)phenyl)-5,6,7,8-tetrahydropyrido[3,4-d]pyrimidin-4-yl)piperazin-2-yl)acetonitrile] were 566 nM, 84.6 nM and 310 nM.
On the same counts, the results for `C=CC(=O)N1CCN(c2nc(OCC3(CN4CCC4)CC3)nc3c2CCN(c2cccc(Cl)c2C(F)(F)F)C3)CC1CC#N` (stereo not drawn) [Compound 39, 2-(1-acryloyl-4-(2-((1-(azetidin-1-ylmethyl)cyclopropyl)methoxy)-7-(3-chloro-2-(trifluoromethyl)phenyl)-5,6,7,8-tetrahydropyrido[3,4-d]pyrimidin-4-yl)piperazin-2-yl)acetonitrile] are 79.6 nM, 7.28 nM and 104 nM.
On the same counts, the results for `C=CC(=O)N1CCN(c2nc(OCC3CCCC3N(C)C)nc3c2CCN(c2cccc4cccc(C)c24)C3)CC1CC#N` (stereo not drawn) [Compound 23, 2-(1-acryloyl-4-(2-((2-(dimethylamino)cyclopentyl)methoxy)-7-(8-methylnaphthalen-1-yl)-5,6,7,8-tetrahydropyrido[3,4-d]pyrimidin-4-yl)piperazin-2-yl)acetonitrile] are 112 nM, 9.45 nM and 66.8 nM.
On to `Cc1cccc2cccc(N3CCc4c(nc(OCC5(CN(C)C)CC5)nc4N4CCN(C(=O)/C=C/CF)C(CC#N)C4)C3)c12` (stereo not drawn) [Compound 77, (E)-2-(4-(2-((1-((dimethylamino)methyl)cyclopropyl)methoxy)-7-(8-methylnaphthalen-1-yl)-5,6,7,8-tetrahydropyrido[3,4-d]pyrimidin-4-yl)-1-(4-fluorobut-2-enoyl)piperazin-2-yl)acetonitrile], for which the figures for the IC50 in assay [1], in assay [2] and in assay [3] were 59.3 nM, 1.24 nM and 29 nM, respectively.
For the molecule `C=CC(=O)N1CCN(c2nc(OCC3(CN4CCC4)CC3)nc3c2CCN(c2cccc4ccccc24)C3)CC1CC#N` (stereo not drawn) [Compound 41, 2-(1-acryloyl-4-(2-((1-(azetidin-1-ylmethyl)cyclopropyl)methoxy)-7-(naphthalen-1-yl)-5,6,7,8-tetrahydropyrido[3,4-d]pyrimidin-4-yl)piperazin-2-yl)acetonitrile], the IC50 in assay [1] came out at 149 nM; in assay [2], 13.5 nM; in assay [3], 179 nM.
Taken in the same sequence, the figures for `C=CC(=O)N1CCN(c2nc(OCC3CCCC3N(C)C)nc3c2CCN(c2cccc(F)c2C(F)(F)F)C3)CC1CC#N` (stereo not drawn) [Compound 26, 2-(1-acryloyl-4-(2-((2-(dimethylamino)cyclopentyl)methoxy)-7-(3-fluoro-2-(trifluoromethyl)phenyl)-5,6,7,8-tetrahydropyrido[3,4-d]pyrimidin-4-yl)piperazin-2-yl)acetonitrile] were 231 nM, 33.7 nM and 154 nM.
On the same counts, the results for `COC/C=C/C(=O)N1CCN(c2nc(OCC3(CN(C)C)CC3)nc3c2CCN(c2cccc4cccc(C)c24)C3)CC1CC#N` (stereo not drawn) [Compound 70, (E)-2-(4-(2-((1-((dimethylamino)methyl)cyclopropyl)methoxy)-7-(8-methylnaphthalen-1-yl)-5,6,7,8-tetrahydropyrido[3,4-d]pyrimidin-4-yl)-1-(4-methoxybut-2-enoyl)piperazin-2-yl)acetonitrile] are 172 nM, 3.41 nM and 195 nM.
Take `C=CC(=O)N1CCN(c2nc(OCC3CCCC3N(C)C)nc3c2CCN(c2cccc(C)c2C)C3)CC1CC#N` (stereo not drawn) [Compound 28, 2-(1-acryloyl-4-(2-((2-(dimethylamino)cyclopentyl)methoxy)-7-(2,3-dimethylphenyl)-5,6,7,8-tetrahydropyrido[3,4-d]pyrimidin-4-yl)piperazin-2-yl)acetonitrile]: the half-inhibitory concentration (IC50) in assay [2] was 24.1 nM; in assay [3], 138 nM.
Turning to `C=CC(=O)N1CCN(c2nc(OCC3CCC(N4CCCC4)C3)nc3c2CCN(c2cccc4ccccc24)C3)CC1CC#N` (stereo not drawn) [Compound 33, 2-(1-acryloyl-4-(7-(26aphthalene-1-yl)-2-((3-(pyrrolidin-1-yl)cyclopentyl)methoxy)-5,6,7,8-tetrahydropyrido[3,4-d]pyrimidin-4-yl)piperazin-2-yl)acetonitrile], the figures for the IC50 in assay [1] and in assay [3] were 302 nM and 652 nM, respectively.

These data come from patent publication US20210040089A1, “KRAS MUTANT PROTEIN INHIBITORS” (Jacobio Pharmaceuticals Co., Ltd., priority 2019, published 2021).
